Consider 28 compounds from patent publication US11661426B2, “Imidazole-containing inhibitors of ALK2 kinase” (BioCryst Pharmaceuticals, Inc., priority 2017, dated 2023).

pIC50: −log10 of the molar value.

Chain of ALK2 (Q04771 21-509): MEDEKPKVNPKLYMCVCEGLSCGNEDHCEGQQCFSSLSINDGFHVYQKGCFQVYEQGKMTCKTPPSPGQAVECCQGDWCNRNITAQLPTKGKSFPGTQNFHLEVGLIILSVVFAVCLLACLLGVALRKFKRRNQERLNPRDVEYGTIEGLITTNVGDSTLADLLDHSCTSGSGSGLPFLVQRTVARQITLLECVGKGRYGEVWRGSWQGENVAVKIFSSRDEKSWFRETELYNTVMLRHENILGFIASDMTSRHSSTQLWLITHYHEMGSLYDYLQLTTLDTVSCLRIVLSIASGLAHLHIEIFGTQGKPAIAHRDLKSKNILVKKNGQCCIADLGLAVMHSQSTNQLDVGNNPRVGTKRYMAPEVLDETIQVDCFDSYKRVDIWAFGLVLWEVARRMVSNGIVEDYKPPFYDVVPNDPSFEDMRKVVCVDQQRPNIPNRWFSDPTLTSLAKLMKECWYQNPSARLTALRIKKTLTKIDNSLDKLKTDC

The target in this assay is ALK2 (Homo sapiens (Human), UniProt Q04771). As to the kind of experiment: ALK2 inhibition, LanthaScreen Eu Kinase Binding Assay (ThermoFisher Scientific / Life Technologies). As to conditions: read-out: Measured Ki (IC50) Value for Compounds: IC50. The method, then:
Biochemical assays to measure the inhibitory effects of the compounds were performed by ThermoFisher Scientific (Life Technologies). ALK2 inhibition was tested using LanthaScreen™ Eu Kinase Binding Assay screening protocol.
On the technique in general: TR-FRET usually uses a lanthanide donor and a delayed reading to cut background.
In the case of `COc1cc(-n2cnc(Nc3nc(N4CCC[C@H]4CO)nc4c3c(C)nn4C)c2)cc(OC)c1OC` [Compound 374a, (S)-(1-(1,3-dimethyl-4-((1-(3,4,5-trimethoxyphenyl)-1H-imidazol-4-yl)amino)-1H-pyrazolo[3,4-d]pyrimidin-6-yl)pyrrolidin-2-yl)methanol], the pIC50 was 6.00 to 7.00.
For `COc1cc(-n2cnc(Nc3nc(N4CCC[C@H]4CO)nc4cc(N5CCN(C)CC5)ccc34)c2)cc(OC)c1OC` [Compound 375a, (S)-(1-(7-(4-methylpiperazin-1-yl)-4-((1-(3,4,5-trimethoxyphenyl)-1H-imidazol-4-yl)amino)quinazolin-2-yl)pyrrolidin-2-yl)methanol] the value was more than 7.00.
For `COc1cc(-n2cnc(Nc3nc(N4CCC[C@H]4CO)nc4cc(N5CCNCC5)ccc34)c2)cc(OC)c1OC` [Compound 376b, (S)-(1-(7-(piperazin-1-yl)-4-((1-(3,4,5-trimethoxyphenyl)-1H-imidazol-4-yl)amino)quinazolin-2-yl)pyrrolidin-2-yl)methanol] the value was more than 7.00; for `COc1cc(-n2cnc(Nc3nc(N4CCC[C@H]4CO)c4c(C)nn(C)c4n3)c2)cc(OC)c1OC` [Compound 377b, (S)-(1-(1,3-dimethyl-6-((1-(3,4,5-trimethoxyphenyl)-1H-imidazol-4-yl)amino)-1H-pyrazolo[3,4-d]pyrimidin-4-yl)pyrrolidin-2-yl)methanol], more than 7.00; for `COc1cc(-n2cnc(Nc3nc(N4CCC[C@H]4CO)nc4cnccc34)c2)cc(OC)c1OC` [Compound 378c, (S)-(1-(4-((1-(3,4,5-trimethoxyphenyl)-1H-imidazol-4-yl)amino)pyrido[3,4-d]pyrimidin-2-yl)pyrrolidin-2-yl)methanol], more than 7.00.
`COc1cc(-n2cnc(Nc3nc(N4CCC[C@H]4C(N)=O)nc4cnccc34)c2)cc(OC)c1OC` [Compound 379a, (S)-1-(4-((1-(3,4,5-trimethoxyphenyl)-1H-imidazol-4-yl)amino)pyrido[3,4-d]pyrimidin-2-yl)pyrrolidine-2-carboxamide]: the pIC50 is more than 7.00.
The same measure for `COc1cc(-n2cnc(Nc3nc(N4CC5(CC5)C[C@H]4CO)c4cccn4n3)c2)cc(OC)c1OC` [Compound 380d, (S)-(5-(2-((1-(3,4,5-trimethoxyphenyl)-1H-imidazol-4-yl)amino)pyrrolo[2,1-f][1,2,4]triazin-4-yl)-5-azaspiro[2.4]heptan-6-yl)methanol]: more than 7.00; for `COc1cc(-n2cnc(Nc3nc(N4CCC[C@H]4CO)c4ccncc4n3)c2)cc(OC)c1OC` [Compound 381b, (S)-(1-(2-((1-(3,4,5-trimethoxyphenyl)-1H-imidazol-4-yl)amino)pyrido[3,4-d]pyrimidin-4-yl)pyrrolidin-2-yl)methanol]: more than 7.00.
Regarding `COc1cc(-n2cnc(Nc3nc(N4CCC[C@@H]4CO)nc4cc(Br)ccc34)c2)cc(OC)c1OC` [Compound 382a, (R)-(1-(7-bromo-4-((1-(3,4,5-trimethoxyphenyl)-1H-imidazol-4-yl)amino)quinazolin-2-yl)pyrrolidin-2-yl)methanol], the pIC50 was more than 7.00.
As to `COc1cc(-n2cnc(Nc3nc(N4CCC[C@@H]4CO)nc4cc(N5CCN(C)CC5)ccc34)c2)cc(OC)c1OC` [Compound 383a, (R)-(1-(7-(4-methylpiperazin-1-yl)-4-((1-(3,4,5-trimethoxyphenyl)-1H-imidazol-4-yl)amino)quinazolin-2-yl)pyrrolidin-2-yl)methanol], the pIC50 is more than 7.00.
Take `COc1cc(-n2cnc(Nc3nc(N4CCC[C@H]4CO)nc4sc(CN5CCCC5)cc34)c2)cc(OC)c1OC` [Compound 384b, (S)-(1-(6-(pyrrolidin-1-ylmethyl)-4-((1-(3,4,5-trimethoxyphenyl)-1H-imidazol-4-yl)amino)thieno[2,3-d]pyrimidin-2-yl)pyrrolidin-2-yl)methanol]: the pIC50 was more than 7.00.
The same measure for `COc1cc(-n2cnc(Nc3nc(N4CCC[C@H]4CO)c4ccc(C5=CCNCC5)cc4n3)c2)cc(OC)c1OC` [Compound 385c, (S)-(1-(7-(1,2,3,6-tetrahydropyridin-4-yl)-2-((1-(3,4,5-trimethoxyphenyl)-1H-imidazol-4-yl)amino)quinazolin-4-yl)pyrrolidin-2-yl)methanol]: more than 7.00; for `COc1cc(-n2cnc(Nc3nc(N4CCC[C@H]4CO)nc4c3ncn4C)c2)cc(OC)c1OC` [Compound 386c, (S)-(1-(9-methyl-6-((1-(3,4,5-trimethoxyphenyl)-1H-imidazol-4-yl)amino)-9H-purin-2-yl)pyrrolidin-2-yl)methanol]: more than 7.00; for `COc1cc(-n2cnc(Nc3nc(N4CCC[C@H]4C(N)=O)nc4c3ncn4C)c2)cc(OC)c1OC` [Compound 387a, (S)-1-(9-methyl-6-((1-(3,4,5-trimethoxyphenyl)-1H-imidazol-4-yl)amino)-9H-purin-2-yl)pyrrolidine-2-carboxamide]: more than 7.00.
With `COc1cc(-n2cnc(Nc3nc(N4CCC[C@H]4CO)c4ncn(C)c4n3)c2)cc(OC)c1OC` [Compound 388b, (S)-(1-(9-methyl-2-((1-(3,4,5-trimethoxyphenyl)-1H-imidazol-4-yl)amino)-9H-purin-6-yl)pyrrolidin-2-yl)methanol], the pIC50 is more than 7.00.
For `COc1cc(-n2cnc(Nc3nc(N4CCC[C@H]4CO)c4c(ncn4C)n3)c2)cc(OC)c1OC` [Compound 389c, (S)-(1-(7-methyl-2-((1-(3,4,5-trimethoxyphenyl)-1H-imidazol-4-yl)amino)-7H-purin-6-yl)pyrrolidin-2-yl)methanol], the pIC50 was more than 7.00.
As to `COc1cc(-n2cnc(Nc3nc(N4CCC[C@H]4C(N)=O)nc4ncn(C)c34)c2)cc(OC)c1OC` [Compound 390b, (S)-1-(7-methyl-6-((1-(3,4,5-trimethoxyphenyl)-1H-imidazol-4-yl)amino)-7H-purin-2-yl)pyrrolidine-2-carboxamide], the pIC50 was less than 6.00.
Regarding `COc1cc(-n2cnc(Nc3nc(N4CCC[C@H]4CO)nc4cc(C)ccc34)c2)cc(OC)c1OC` [Compound 391c, (S)-(1-(7-methyl-4-((1-(3,4,5-trimethoxyphenyl)-1H-imidazol-4-yl)amino)quinazolin-2-yl)pyrrolidin-2-yl)methanol], the pIC50 was more than 7.00.
Regarding `COc1cc(-n2cnc(Nc3nc(N4CCC[C@H]4C(N)=O)nc4cc(C)ccc34)c2)cc(OC)c1OC` [Compound 392a, (S)-1-(7-methyl-4-((1-(3,4,5-trimethoxyphenyl)-1H-imidazol-4-yl)amino)quinazolin-2-yl)pyrrolidine-2-carboxamide], the pIC50 was more than 7.00.
With `COc1cc(-n2cnc(Nc3nc(N4CCC[C@H]4CO)c4ccc(C)cc4n3)c2)cc(OC)c1OC` [Compound 393b, (S)-(1-(7-methyl-2-((1-(3,4,5-trimethoxyphenyl)-1H-imidazol-4-yl)amino)quinazolin-4-yl)pyrrolidin-2-yl)methanol], the pIC50 was 6.00 to 7.00.
As for `COc1cc(-n2cnc(Nc3nc4c(c(N5[C@H](CO)C[C@H]6C[C@H]65)n3)CCC4)c2)cc(OC)c1OC` [Compound 394b, ((1R,3S,5R)-2-(2-((1-(3,4,5-trimethoxyphenyl)-1H-imidazol-4-yl)amino)-6,7-dihydro-5H-cyclopenta[d]pyrimidin-4-yl)-2-azabicyclo[3.1.0]hexan-3-yl)methanol], the pIC50 is more than 7.00.
For `COc1cc(-n2cnc(Nc3nc(N4CCC[C@H]4C(N)=O)nc4[nH]cc(C#N)c34)c2)cc(OC)c1OC` [Compound 395d, (S)-1-(5-cyano-4-((1-(3,4,5-trimethoxyphenyl)-1H-imidazol-4-yl)amino)-7H-pyrrolo[2,3-d]pyrimidin-2-yl)pyrrolidine-2-carboxamide] the value was less than 6.00; for `COc1cc(-n2cnc(Nc3nc(N4[C@H](CO)C[C@H]5C[C@H]54)nc4c3CCC4)c2)cc(OC)c1OC` [Compound 396a, ((1R,3S,5R)-2-(4-((1-(3,4,5-trimethoxyphenyl)-1H-imidazol-4-yl)amino)-6,7-dihydro-5H-cyclopenta[d]pyrimidin-2-yl)-2-azabicyclo[3.1.0]hexan-3-yl)methanol], more than 7.00; for `COc1cc(-n2cnc(Nc3nc(N4CCC[C@H]4CO)nc4[nH]cc(C#N)c34)c2)cc(OC)c1OC` [Compound 397a, (S)-2-(2-(hydroxymethyl)pyrrolidin-1-yl)-4-((1-(3,4,5-trimethoxyphenyl)-1H-imidazol-4-yl)amino)-7H-pyrrolo[2,3-d]pyrimidine-5-carbonitrile], 6.00 to 7.00.
Consider `COc1cc(-n2cnc(Nc3nc4c(c(N5CCC[C@H]5CO)n3)CCCCC4)c2)cc(OC)c1OC` [Compound 398c, (S)-(1-(2-((1-(3,4,5-trimethoxyphenyl)-1H-imidazol-4-yl)amino)-6,7,8,9-tetrahydro-5H-cyclohepta[d]pyrimidin-4-yl)pyrrolidin-2-yl)methanol], for which the pIC50 is more than 7.00.
For `COc1cc(-n2cnc(Nc3nc(N4CCC[C@H]4CO)nc4cc(CN5CCCC5)ccc34)c2)cc(OC)c1OC` [Compound 399f, (S)-(1-(7-(pyrrolidin-1-ylmethyl)-4-((1-(3,4,5-trimethoxyphenyl)-1H-imidazol-4-yl)amino)quinazolin-2-yl)pyrrolidin-2-yl)methanol], the pIC50 is more than 7.00.
The same measure for `COc1cc(-n2cnc(Nc3nc(N4CCC[C@H]4CO)nc4c3c(C)nn4C3CCCCO3)c2)cc(OC)c1OC` (stereo partly drawn) [Compound 400c, ((2S)-1-(3-methyl-1-(tetrahydro-2H-pyran-2-yl)-4-((1-(3,4,5-trimethoxyphenyl)-1H-imidazol-4-yl)amino)-1H-pyrazolo[3,4-d]pyrimidin-6-yl)pyrrolidin-2-yl)methanol]: 6.00 to 7.00.
`COc1cc(-n2cnc(Nc3nc(N4CCC[C@H]4CO)nc4[nH]nc(C)c34)c2)cc(OC)c1OC` [Compound 400d, (S)-(1-(3-methyl-4-((1-(3,4,5-trimethoxyphenyl)-1H-imidazol-4-yl)amino)-1H-pyrazolo[3,4-d]pyrimidin-6-yl)pyrrolidin-2-yl)methanol]: the pIC50 was 6.00 to 7.00.

Broadly, the pIC50 is −log10 of the IC50, conventionally taken in molar units.
